PMC5686453 (ACS chemical neuroscience, 2017)
Entries after “also recorded” stand apart in the source; their conditions may differ.

Tests used:
α1β3γ2L GABAA receptor = α1β3γ2L GABAA receptor (Rattus norvegicus, UniProt P18508+P62813, INS375LLRMFSFK); format: cell-based; conditions: for peak response (potentiation of the response to GABA): α1β3γ2L, percentage of the response to GABA alone
α2β3γ2L GABAA receptor = α2β3γ2L GABAA receptor (UniProt P18508+P47869, INS375LLRMFSFK); format: cell-based, human; conditions: for peak response (potentiation of the response to GABA): α2β3γ2L, percentage of the response to GABA alone
α3β3γ2L GABAA receptor = α3β3γ2L GABAA receptor (Rattus norvegicus, UniProt P18508+P20236, INS375LLRMFSFK); format: cell-based; conditions: for peak response (potentiation of the response to GABA): α3β3γ2L, percentage of the response to GABA alone
[1] = target: α5-containing GABAA receptors (with β3, γ2L) (Rattus norvegicus, UniProt P18508+P19969, INS375LLRMFSFK); format: cell-based; conditions: 0.1 μM modulator, 0.3 μM GABA
[2] = test system: 0.6% acetic acid-induced writhing in mice; assay: 0.6% acetic acid-induced writhing; format: in vivo, ICR mice; conditions: s.c. pretreatment, 25 min observation
[3] = test system: 0.32% lactic acid-induced writhing in mice; format: in vivo, ICR mice; conditions: s.c. pretreatment, 25 min observation
[4] = test system: acetic acid-depressed nesting in mice; assay: Acetic acid-depressed nesting; format: in vivo, ICR mice; conditions: 60 min nesting period
[5] = test system: acetic acid-depressed locomotion in mice; assay: Acetic acid-depressed locomotor activity; format: in vivo, ICR mice; conditions: s.c. pretreatment, 0.6% acetic acid
[6] = test system: lactic acid-depressed locomotion in mice; assay: Lactic acid-depressed locomotor activity; design: species or system ICR mice; conditions: mouse, in vivo
mice = assay: Pilot study of a larger dose; format: in vivo; conditions: 32 mg/kg
[7] = target: α4-containing GABAA receptors (with β3, γ2L) (Rattus norvegicus, UniProt P18508+P28471, INS375LLRMFSFK); format: cell-based; conditions: 1 μM modulator, 0.3 μM GABA
[8] = target: α6-containing GABAA receptors (with β3, γ2L) (Rattus norvegicus, UniProt P18508+P30191, INS375LLRMFSFK); format: cell-based; conditions: 1 μM modulator, 0.1 μM GABA
formalin test = conditions: only partially effective; cited from earlier work
[9] = test system: rat models of inflammatory and neuropathic pain; conditions: cited from earlier work
[10] = test system: spontaneous locomotor activity in naïve mice; assay: Baseline locomotor activity without acid; format: in vivo, ICR mice; conditions: doses used for the pain studies

Row | SMILES | EC50 (α1β3γ2L GABAA receptor) [nM] | peak response (potentiation of the response to GABA) (α1β3γ2L GABAA receptor) [%] | EC50 (α2β3γ2L GABAA receptor) [nM] | peak response (potentiation of the response to GABA) (α2β3γ2L GABAA receptor) [%] | EC50 (α3β3γ2L GABAA receptor) [nM] | peak response (potentiation of the response to GABA) (α3β3γ2L GABAA receptor) [%] | modulation of GABA response at α5-containing receptors (in words) [1] | effect on 0.6% acetic acid-induced writhing (in words) [2] | effect on […] lactic acid-induced writhing (in words) [3] | effect on the decrease in cleared zones by acetic acid (nesting, in words) [4] | effect on locomotor activity of acetic acid-treated mice (in words) [5] | effect on locomotor activity of lactic acid-treated mice (in words) [6] | sedation at a larger dose (mice) | other results
1 | C#Cc1ccc2c(c1)C(c1ccccc1F)=NCc1c(-c3cnco3)ncn1-2 [KRM-II-18B, 5-(8-ethynyl-6-(2-fluorophenyl)-4H-benzo[f]imidazo[1,5-a][1,4]diazepin-3-yl) oxazole] | 739 ± 252 | 410.6 ± 26.3 | 261 ± 116 | 320.0 ± 14.3 | 169 ± 39.8 | 383.0 ± 33.2 | significant efficacy | dose-dependently decreased | decreased | failed to significantly attenuate | failed to restore | failed to restore | marked sedation | selectivity among the three subtypes (α1, α2, α3) (α1β3γ2L GABAA receptor; in words): no significant selectivity
2 | C#Cc1ccc2c(c1)C(c1ccccn1)=NCc1c(-c3cnco3)ncn1-2 [KRM-II-81, 5-(8-ethynyl-6-(pyridin-2-yl)-4H-benzo[f]imidazo[1,5-a][1,4]diazepin-3-yl) oxazole] | 1730 ± 690 | 316.9 ± 38.6 | 102 ± 28.5 | 350.1 ± 21.5 | 60.9 ± 11.6 | 352.2 ± 38.0 | much less sensitive; also recorded: negligible efficacy | dose-dependently decreased | decreased | failed to significantly attenuate | failed to restore | failed to restore | marked sedation | selectivity on α2 subtype over α1 subtype GABAA receptors (α2β3γ2L GABAA receptor; from EC50 values): 17 fold; selectivity on α3 subtype over α1 subtype GABAA receptors (α3β3γ2L GABAA receptor; from EC50 values): 28 fold; modulation of GABA response at α4-containing receptors (in words) [7]: negligible efficacy; modulation of GABA response at α6-containing receptors (in words) [8]: negligible efficacy
3 | CC(C)(O)c1ccc2c(c1)ncn2-c1cccc(-c2ccccc2C#N)c1 [NS11394, 3′-[5-(1-hydroxy-1-methyl-ethyl)-benzoimidazol-1-yl]-biphenyl-2-carbonitrile] | – | – | – | – | – | – | – | – | – | – | – | – | – | reduction in the formalin test (formalin test): 33%; antinociceptive effects in rat models of inflammatory and neuropathic pain [9]: significant antinociceptive effects; sedation at the antinociceptive doses ([9]; rat, same doses): does not produce sedation
4 | CC(=O)Nc1ccc(O)cc1 [acetaminophen, reference compound] | – | – | – | – | – | – | – | – | – | – | dose-dependently increased | dose-dependently increased | – | effect on locomotor / spontaneous activity without acid [10]: did not significantly change
